Assay results taken from the NIST ThermoML archive (doi:10.1016/j.jct.2013.09.039).

Assay: xn = mol fraction of the nth substance listed
Conditions: Liquid, Vibrating tube method

Cc1ccc(C)cc1 [1,4-dimethylbenzene] + CCCCCCCCCC
mass density [kg/m3]
Conditions | 100 kPa | 5000 kPa | 10000 kPa | 20000 kPa | 30000 kPa | 40000 kPa
288.15 K, x2 = 0.0513 | 854 | 858 | 861.4 | 867.9 | 873.8 | 879.5
288.15 K, x2 = 0.0971 | 845.3 | 849.4 | 852.8 | 859.2 | 865 | 870.8
288.15 K, x2 = 0.1962 | 828.2 | 831.6 | 835 | 841.5 | 847.4 | 853.3
288.15 K, x2 = 0.2932 | 812.1 | 815.9 | 819.4 | 825.7 | 831.8 | 837.6
288.15 K, x2 = 0.3942 | 799.8 | 803.5 | 806.9 | 813.5 | 819.4 | 825.1
288.15 K, x2 = 0.4987 | 784.1 | 787.7 | 791.4 | 797.7 | 803.8 | 809.4
288.15 K, x2 = 0.5563 | 777.2 | 780.7 | 784.2 | 790.8 | 796.7 | 802.5
288.15 K, x2 = 0.5965 | 773.9 | 777 | 779.5 | 786 | 792 | 798.1
288.15 K, x2 = 0.7018 | 761 | 764.7 | 768.4 | 774.8 | 780.7 | 786.3
288.15 K, x2 = 0.8047 | 750.8 | 754.4 | 757.9 | 764.3 | 770.4 | 776
288.15 K, x2 = 0.8975 | 741 | 745.1 | 748.6 | 755.6 | 761.9 | 768.1
288.15 K, x2 = 0.9474 | 738 | 741.8 | 745.2 | 751.5 | 757.6 | 763.2
298.15 K, x2 = 0.0513 | 845.7 | 850.1 | 853.3 | 860 | 866.2 | 872.1
298.15 K, x2 = 0.0971 | 837.1 | 841.3 | 844.4 | 851.2 | 857.6 | 863.4
298.15 K, x2 = 0.1962 | 819.6 | 823.7 | 827 | 833.8 | 840.2 | 846
298.15 K, x2 = 0.2932 | 804 | 808.2 | 811.4 | 818.4 | 824.7 | 830.4
298.15 K, x2 = 0.3942 | 791.6 | 795.8 | 799.2 | 806 | 812.4 | 818.2
298.15 K, x2 = 0.4987 | 776 | 780.5 | 783.6 | 790.4 | 796.8 | 802.6
298.15 K, x2 = 0.5563 | 769 | 773.4 | 776.7 | 783.6 | 789.9 | 795.7
298.15 K, x2 = 0.5965 | 765 | 768.7 | 771.9 | 778.8 | 785.2 | 791.1
298.15 K, x2 = 0.7018 | 753.2 | 757.6 | 760.8 | 767.7 | 774 | 779.8
298.15 K, x2 = 0.8047 | 742.9 | 747.2 | 750.5 | 757.4 | 763.7 | 769.5
298.15 K, x2 = 0.8975 | 734.6 | 738.6 | 741.8 | 748.2 | 755.2 | 761.6
298.15 K, x2 = 0.9474 | 730.4 | 734.6 | 738 | 744.7 | 750.9 | 757.2
308.15 K, x2 = 0.0513 | 837.2 | 841.3 | 844.9 | 851.9 | 858.8 | 865.1
308.15 K, x2 = 0.0971 | 828.6 | 832.6 | 836.5 | 843.4 | 849.8 | 856
308.15 K, x2 = 0.1962 | 811.1 | 815.2 | 819.1 | 826 | 832.7 | 838.9
308.15 K, x2 = 0.2932 | 795.7 | 799.9 | 803.7 | 810.6 | 817.4 | 823.6
308.15 K, x2 = 0.3942 | 783.5 | 787.7 | 791.4 | 798.6 | 805.2 | 811.3
308.15 K, x2 = 0.4987 | 768.1 | 772.1 | 776.1 | 783.3 | 789.9 | 795.9
308.15 K, x2 = 0.5563 | 761 | 765.2 | 769.3 | 776.4 | 783 | 789.1
308.15 K, x2 = 0.5965 | 757 | 760.6 | 764.5 | 771.7 | 778.2 | 785
308.15 K, x2 = 0.7018 | 746.3 | 749.6 | 753.5 | 760.6 | 767 | 773.3
308.15 K, x2 = 0.8047 | 736.1 | 739.4 | 743.3 | 750.3 | 757 | 763.1
308.15 K, x2 = 0.8975 | 727.9 | 731.3 | 734.8 | 741.9 | 748.5 | 755.1
308.15 K, x2 = 0.9474 | 723.2 | 726.8 | 730.9 | 737.9 | 744.4 | 750.9
